The conditions of data set [1]: mice and dogs; cited from earlier work.
The conditions of data set [2]: in vivo; cited from earlier work.
The test system of data set [3] is transplantable mouse solid tumors. To be noted: oral administration; cited from earlier work.
In data set [4] the test system is cultured tumor cells. The following applies: cited from earlier work.
Data set [5] relates to MDAMB-435 human breast tumor xenografts. As to the kind of experiment: MDAMB-435 orthotopic model, NM-3 with paclitaxel, first study. The data set is classed as in vivo, female NCRNU nude mice. To be noted: for % Tumor Growth Inhibition: Taxol 10 mg/kg q7d i.p. alone. The source says:
In order to determine the effect of the combination of NM-3 with the cytotoxic drug, paclitaxel on human breast tumor xenografts, female NCRNU nude mice were implanted with MDAMB-435 cells into the subaxillary mammary fat pad. […]

Data set [6] shares this test system. As to the kind of experiment: MDAMB-435 orthotopic model, NM-3 with paclitaxel, second study (100 mm^3) and delivery routes. It is filed as in vivo, female NCRNU nude mice. To be noted: Taxol 12.5 mg/kg q7d alone. As to the method: In order to determine the effect of the combination of NM-3 with the cytotoxic drug, paclitaxel on human breast tumor xenografts, female NCRNU nude mice were implanted with MDAMB-435 cells into the subaxillary mammary fat pad. NM-3 was administered via intraperitoneal (i.p.) injection daily at doses ranging from 10-100 mg/kg; paclitaxel was administered via i.p. injection every 7 days, starting on day 0, at 10 mg/kg.
In a second study, treatment was initiated when tumor volumes reached 100 mm^3. Paclitaxel was administered at the fixed dose of 12.5 mg/kg, q7d and NM-3 was dosed at 10 and 100 mg/kg, i.p. daily for 28 days.
A comparison was also made between different delivery routes of NM-3 in the combination studies. NM-3 given i.p. daily, bid, and continuously using Alzet mini osmotic pumps in combination with paclitaxel was evaluated for effectiveness in reducing tumor growth.

For data set [7], the system named is colon 26 adenocarcinoma. Kind of data set: Combination with cyclophosphamide, survival. The data set is classed as in vivo, BALB/c mice. To be noted: Cyclophosphamide 300 mg/kg i.v. day 14 alone. As to the method:
To determine the effect on tumor growth of NM-3 treatment combined with simultaneous cyclophosphamide treatment, colon 26 adenocarcinoma cells (5×10^4 cells per mouse) were subcutaneously transplanted into BALB/c mice (female, 7 weeks old) in the inguinal area. NM-3 was continuously orally administered from day 1 to day 72 after the transplantation except on day 14 when cyclophosphamide was dosed.

The test system of data set [8] is IMC carcinoma. Kind of data set: Combination with cyclophosphamide, tumor weight. The following applies: Cyclophosphamide 300 mg/kg i.v. day 14 alone. The data set is classed as in vivo, CDF1 mice. As for the experimental part:
To determine the effect on IMC carcinoma growth of NM-3 treatment combined with simultaneous cyclophosphamide treatment, IMC carcinoma cells (1×10^6 cells per mouse) were subcutaneously transplanted into CDF1 mice (female, 10 weeks old) in the inguinal area. NM-3 which was dissolved using 5% DMSO+Tween80, was continuously orally administered from day 1 to day 41 after transplantation except on day 14, when cyclophosphamide (300 mg/kg) was injected intravenously.

Data set [9] concerns MDAMB-435 human breast tumor xenografts. Kind of data set: MDAMB-435 orthotopic model, NM-3 with 5-Fluorouracil. It is filed as in vivo, female NCRNU nude mice. To be noted: 5-FU 10 mpk q14d; 0,14 alone. As for the experimental part: In order to evaluate the antitumor activity of NM-3 in combination with 5-Fluorouracil (5-FU) vs. MDAMB-435 human breast tumor xenografts, female NCRNU nude mice were implanted with MDAMB-435 cells into the subaxillary mammary fat pad. When the tumors were between 50 and 80 mm^3, NM-3 was administered via intraperitoneal (i.p.) injection daily at 10 and 100 mg/kg; 5-FU was administered via i.p. injection on days 0 and 14, at 10 mg/kg. Mice were weighed twice weekly, and tumor measurements were taken by calipers twice weekly. Mice were euthenized at the end of the treatment period. Upon termination, the mice were weighed, sacrificed and their tumors were excised.
Initial studies were conducted with 5-FU to determine the optimal dose of this agent when administered in combination with NM-3.

Data set [10] has as its system Lewis Lung carcinoma (LLC) tumors. As to the kind of experiment: Radiation sensitivity of Lewis Lung carcinoma in vivo. The following applies: combined with X-ray treatment. Set-up: species or system C57BL/6 female mice. As to the method:
To determine whether NM-3 treatment increases the radiation sensitivity of tumors in vivo, Lewis Lung carcinoma (LLC) tumors were established in C57BL/6 female mice (Frederick Cancer Research Institute) prior to NM-3 and radiation treatment. LLC cells (1×10^6 cells) were injected in the right hind limb of the mice and tumors were allowed to grow a volume of 250-350 mm^3. Tumor volumes were determined by direct measurements with calipers calculated by the formula: V=length×width×depth/2. Mice were then divided into groups and treated with NM-3 (100 mg/kg total) or PBS for two days before beginning radiation therapy. Animals then received NM-3 (25 mg/kg/day, i.p.) or PBS approximately four hours prior to radiation treatment. Tumors were irradiated using a GE Maxitron X-ray generator operating at 150 kV, 30 mA, using a 1 mm aluminum filter at a dose rate of 188 cGy/minute. Mice were shielded with lead except for the tumor-bearing area in the hind limb. Treatments and tumor measurements continued for a period of 17 days (see FIG. 4). […] Whereas control tumors reached 8 initial tumor volumes (Vo) after 8 days, X-ray treated tumors required 16 days to grow to this size. […] For comparison, data are plotted with two additional anti-angiogenic drugs, antiostatin and endostatin (see FIGS. 3B and 3C).

For data set [11], the system named is Human umbilical vein endothelial cells (HUVEC). As to the kind of experiment: HUVEC colony formation with a constant amount of gamma radiation. It is filed as cell-based. As for the experimental part:
Human umbilical vein endothelial cells (HUVEC) were exposed to a constant amount of gamma radiation in the presence or absence of various concentrations of NM-3 in the culture medium. The numbers of HUVEC colonies that formed following the different treatments were recorded and normalized to the number of colonies formed under control (no NM-3) conditions and the results are shown in FIG. 1. […] For comparison, HUVEC cells were treated with either angiostatin or endostatin, two additional anti-angiogenic proteins.

For the molecule `COc1cc(O)c2c(=O)oc(CO)cc2c1` [Cytogenin, 3-hydroxymethyl-6-methoxy-8-hydroxy-1H-2-benzopyran-1-one], the Toxicity result in data set [1] is given as “low toxicity”. Further, the Stability result in data set [2] is on record as “in vivo instability”. In addition, the Antitumor activity result in data set [3] was “demonstrated antitumor activities”. The Anti-proliferation inhibitory activity result in data set [4] is reported as “very low anti-proliferation inhibitory activity”.

`CC(=O)O[C@H]1C(=O)[C@@]2(C)[C@H]([C@H](OC(=O)c3ccccc3)[C@]3(O)C[C@H](OC(=O)[C@H](O)[C@@H](NC(=O)c4ccccc4)c4ccccc4)C(C)=C1C3(C)C)[C@]1(OC(C)=O)CO[C@@H]1C[C@@H]2O` [Taxol, paclitaxel]: the “Final Tumor Wt. (mg) +/− SEM” value in data set [5] (Taxol 10 mg/kg q7d alone) was 215.6 ± 19.73 mg. The “Mice with Complete Shrinkage” value came to 0 in data set [5] (Taxol 10 mg/kg q7d alone, n 9) and 0 in [6] (n 9). Further, the results for the “% Tumor Growth Inhibition” value in [5] (listed as Paclitaxel), in data set [5] (listed as paclitaxel) and in data set [6] were “no tumor growth inhibition”, “minimal effect” and 26.52%, respectively. The Tumor growth inhibition result in [5] (paclitaxel 20 mg/kg, single agent) is recorded as “significant effect on tumor growth inhibition”. Moreover, the “Final Tumor Ratio (V/Vo) +/− SEM” value in data set [6] was 4.71 ± 0.76 V/Vo.

In the case of `O=P1(N(CCCl)CCCl)NCCCO1` (stereo not shown) [Cyclophosphamide, reference compound], in data set [7], the “Mean Survival Days (days ± S.D.)” value worked out at 47.9 ± 13.9 days and the “T/C (%)” value is listed as 145.1%. The “T/C (%)” value in data set [7] (listed as cyclophosphamide) was 145%. Besides, the “Inhibition (%)” value in data set [8] is on record as 70.7%. For the same molecule, the “Solid Weight mg ± S.D.” value in [8] (day 42) amounted to 3620.4 ± 1406.3 mg.

As for `O=c1[nH]cc(F)c(=O)[nH]1` [5-FU, 5-Fluorouracil, reference compound], the “Final Tumor Wt. (mg) +/− SEM” value in data set [9] is on record as 259.6 ± 36.22 mg.

B1: endostatin: anti-angiogenic protein used for comparison (protein, UniProt P39060 1572-1754, looked up)
Endostatin: HSHRDFQPVLHLVALNSPLSGGMRGIRGADFQCFQQARAVGLAGTFRAFLSSRLQDLYSIVRRADRAAVPIVNLKDELLFPSWEALFSGSEGPLKPGARIFSFDGKDVLRHPTWPQKSVWHGSDPNGRRLTESYCETWRTEAPSATGQASSLLGGRLLGQSAASCHHAYIVLCIENSFMTASK
modifications: Endostatin
notes: anti-angiogenic protein used for comparison
Regarding B1, in [10], the “Radiation sensitization of tumors” value is reported as “did not”. Besides, the “Inhibition of HUVEC growth compared with NM-3” value in [11] is “Neither angiostatin nor endostatin inhibited HUVEC growth to the extent of NM-3”.

B2: angiostatin: 38-kDa fragment of plasminogen that selectively inhibits proliferation of endothelial cells; anti-angiogenic protein (protein, UniProt P00747 79-466, looked up)
Angiostatin: NRKSSIIIRMRDVVLFEKKVYLSECKTGNGKNYRGTMSKTKNGITCQKWSSTSPHRPRFSPATHPSEGLEENYCRNPDNDPQGPWCYTTDPEKRYDYCDILECEEECMHCSGENYDGKISKTMSGLECQAWDSQSPHAHGYIPSKFPNKNLKKNYCRNPDRELRPWCFTTDPNKRWELCDIPRCTTPPPSSGPTYQCLKGTGENYRGNVAVTVSGHTCQHWSAQTPHTHNRTPENFPCKNLDENYCRNPDGKRAPWCHTTNSQVRWEYCKIPSCDSSPVSTEQLAPTAPPELTPVVQDCYHGDGQSYRGTSSTTTTGKKCQSWSSMTPHRHQKTPENYPNAGLTMNYCRNPDADKGPWCFTTDPSVRWEYCNLKKCSGTEASVVAPPP
modifications: Angiostatin
notes: anti-angiogenic protein
Turning to B2, the “Radiation sensitization of tumors” value in [10] was “some radiation sensitization”. Further, in data set [11], the “Inhibition of HUVEC growth compared with NM-3” value is “Neither angiostatin nor endostatin inhibited HUVEC growth to the extent of NM-3”.

The values above are taken from patent publication US6900239B2, “Tumor chemopotentiation using isocoumarin derivatives” (ILWZ ILEX Products, Inc., priority 2000, dated 2005).
